The supplement of paper PMC10307832

Legend:
Experiment in all cases: relative viability (nuclei count vs DMSO), 5 days (fraction); higher = more cells survive
CAL-12T = test system: CAL-12T
Method in brief: (§1)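 Lung cancer cell lines were seeded in 1536-well plates and dosed by pin tool the next day, with either a single drug or a fixed anchor-drug dose combined with five library-drug doses (not always all listed) spaced in √10 steps. Five days later, one step fixed the cells and stained their nuclei (final 0.05% Triton X-100, 1% formaldehyde, 1 ug/ml Hoechst), and nuclei were counted on 4× images. Relative viability is the nuclei count in treated wells divided by the count in vehicle wells, and each value is the median of duplicate plates.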

COR-L 105 = test system: COR-L 105
Method in brief: as §1

H3255 = test system: H3255
Method in brief: as §1

HARA = test system: HARA
Method in brief: as §1

HCC-15 = test system: HCC-15
Method in brief: as §1

HCC-366 = test system: HCC-366
Method in brief: as §1

LC-2-ad = test system: LC-2-ad
Method in brief: as §1

LU99A = test system: LU99A
Method in brief: as §1

NCI-H1437 = test system: NCI-H1437
Method in brief: as §1

NCI-H1648 = test system: NCI-H1648
Method in brief: as §1

NCI-H1666 = test system: NCI-H1666
Method in brief: as §1

NCI-H1734 = test system: NCI-H1734
Method in brief: as §1

NCI-H1915 = test system: NCI-H1915
Method in brief: as §1

NCI-H1944 = test system: NCI-H1944
Method in brief: as §1

NCI-H2347 = test system: NCI-H2347
Method in brief: as §1

NCI-H460 = test system: NCI-H460
Method in brief: as §1

NCI-H650 = test system: NCI-H650
Method in brief: as §1

NCI-H838 = test system: NCI-H838
Method in brief: as §1

PC-14 = test system: PC-14
Method in brief: as §1

RERF-LC-KJ = test system: RERF-LC-KJ
Method in brief: as §1

SW 900 = test system: SW 900
Method in brief: as §1

In the case of `C=C1C(=O)O[C@@H](CCCCCCCC)[C@@H]1C(=O)O` [C-75] + Nc1nc2[nH]cc(CCc3ccc(C(=O)N[C@@H](CCC(=O)O)C(=O)O)cc3)c2c(=O)[nH]1 [Pemetrexed] (partner 0.2 µM), the relative viability (CAL-12T; first compound 0.08 µM) is reported as 1.37, the relative viability (CAL-12T; first compound 0.253 µM) is reported as 1.45 and the relative viability (CAL-12T; first compound 0.8 µM) is reported as 1.11. For the same compound, the relative viability (CAL-12T; first compound 2.53 µM) was 1.05, the relative viability (CAL-12T; first compound 8 µM) was 1.27 and the relative viability (COR-L 105; first compound 0.08 µM) was 1.14. For the same compound, the relative viability (COR-L 105; first compound 0.253 µM) was 1.07, the relative viability (COR-L 105; first compound 0.8 µM) was 1.07 and the relative viability (COR-L 105; first compound 2.53 µM) was 1.24. The relative viability (COR-L 105; first compound 8 µM) was 0.96, the relative viability (H3255; first compound 0.08 µM) was 0.588 and the relative viability (H3255; first compound 0.253 µM) was 0.561. The relative viability (H3255; first compound 0.8 µM) was 0.577, the relative viability (H3255; first compound 2.53 µM) was 0.525 and the relative viability (H3255; first compound 8 µM) was 0.627. It also gave a relative viability (HARA; first compound 0.08 µM) of 0.273, a relative viability (HARA; first compound 0.253 µM) of 0.254 and a relative viability (HARA; first compound 0.8 µM) of 0.233. It also gave a relative viability (HARA; first compound 2.53 µM) of 0.222, a relative viability (HARA; first compound 8 µM) of 0.299 and a relative viability (HCC-15; first compound 0.08 µM) of 0.246. The relative viability (HCC-15; first compound 0.253 µM) was 0.239, the relative viability (HCC-15; first compound 0.8 µM) was 0.203 and the relative viability (HCC-15; first compound 2.53 µM) was 0.208. It also gave a relative viability (HCC-15; first compound 8 µM) of 0.223, a relative viability (HCC-366; first compound 0.08 µM) of 0.156 and a relative viability (HCC-366; first compound 0.253 µM) of 0.183. The relative viability (HCC-366; first compound 0.8 µM) was 0.149, the relative viability (HCC-366; first compound 2.53 µM) was 0.22 and the relative viability (HCC-366; first compound 8 µM) was 0.188. The relative viability (LC-2-ad; first compound 0.08 µM) was 0.283, the relative viability (LC-2-ad; first compound 0.253 µM) was 0.265 and the relative viability (LC-2-ad; first compound 0.8 µM) was 0.285. The relative viability (LC-2-ad; first compound 2.53 µM) was 0.279, the relative viability (LC-2-ad; first compound 8 µM) was 0.271 and the relative viability (LU99A; first compound 0.08 µM) was 0.191. It also gave a relative viability (LU99A; first compound 0.253 µM) of 0.212, a relative viability (LU99A; first compound 0.8 µM) of 0.195 and a relative viability (LU99A; first compound 2.53 µM) of 0.19. The relative viability (LU99A; first compound 8 µM) was 0.21, the relative viability (NCI-H1437; first compound 0.08 µM) was 0.314 and the relative viability (NCI-H1437; first compound 0.253 µM) was 0.324. It also gave a relative viability (NCI-H1437; first compound 0.8 µM) of 0.321, a relative viability (NCI-H1437; first compound 8 µM) of 0.269 and a relative viability (NCI-H1648; first compound 0.08 µM) of 0.731. For the same compound, the relative viability (NCI-H1648; first compound 0.253 µM) was 1.01, the relative viability (NCI-H1648; first compound 0.8 µM) was 0.681 and the relative viability (NCI-H1648; first compound 8 µM) was 0.606. The relative viability (NCI-H1666; first compound 0.08 µM) was 0.882, the relative viability (NCI-H1666; first compound 0.253 µM) was 0.828 and the relative viability (NCI-H1666; first compound 0.8 µM) was 0.815. It also gave a relative viability (NCI-H1666; first compound 8 µM) of 0.796, a relative viability (NCI-H1734; first compound 0.08 µM) of 0.382 and a relative viability (NCI-H1734; first compound 0.253 µM) of 0.396. The relative viability (NCI-H1734; first compound 0.8 µM) was 0.41, the relative viability (NCI-H1734; first compound 2.53 µM) was 0.359 and the relative viability (NCI-H1734; first compound 8 µM) was 0.361. The relative viability (NCI-H1915; first compound 0.08 µM) was 0.471, the relative viability (NCI-H1915; first compound 0.253 µM) was 0.475 and the relative viability (NCI-H1915; first compound 0.8 µM) was 0.483. The relative viability (NCI-H1915; first compound 2.53 µM) was 0.448, the relative viability (NCI-H1915; first compound 8 µM) was 0.527 and the relative viability (NCI-H1944; first compound 0.08 µM) was 0.645. It also gave a relative viability (NCI-H1944; first compound 0.253 µM) of 0.784, a relative viability (NCI-H1944; first compound 0.8 µM) of 0.509 and a relative viability (NCI-H1944; first compound 2.53 µM) of 0.564. For the same compound, the relative viability (NCI-H1944; first compound 8 µM) was 0.57, the relative viability (NCI-H2347; first compound 0.08 µM) was 0.402 and the relative viability (NCI-H2347; first compound 0.253 µM) was 0.388. It also gave a relative viability (NCI-H2347; first compound 0.8 µM) of 0.442, a relative viability (NCI-H2347; first compound 2.53 µM) of 0.447 and a relative viability (NCI-H2347; first compound 8 µM) of 0.48. For the same compound, the relative viability (NCI-H460; first compound 0.08 µM) was 0.0548, the relative viability (NCI-H460; first compound 0.253 µM) was 0.0554 and the relative viability (NCI-H460; first compound 0.8 µM) was 0.0669. The relative viability (NCI-H460; first compound 2.53 µM) was 0.0313, the relative viability (NCI-H460; first compound 8 µM) was 0.0571 and the relative viability (NCI-H650; first compound 0.08 µM) was 1.28. It also gave a relative viability (NCI-H650; first compound 0.253 µM) of 0.888, a relative viability (NCI-H650; first compound 0.8 µM) of 0.857 and a relative viability (NCI-H650; first compound 2.53 µM) of 0.823. For the same compound, the relative viability (NCI-H650; first compound 8 µM) was 0.882, the relative viability (NCI-H838; first compound 0.08 µM) was 0.224 and the relative viability (NCI-H838; first compound 0.253 µM) was 0.265. The relative viability (NCI-H838; first compound 0.8 µM) was 0.262, the relative viability (NCI-H838; first compound 2.53 µM) was 0.18 and the relative viability (NCI-H838; first compound 8 µM) was 0.239. For the same compound, the relative viability (PC-14; first compound 0.08 µM) was 0.141, the relative viability (PC-14; first compound 0.253 µM) was 0.146 and the relative viability (PC-14; first compound 0.8 µM) was 0.137. For the same compound, the relative viability (PC-14; first compound 2.53 µM) was 0.141, the relative viability (PC-14; first compound 8 µM) was 0.131 and the relative viability (RERF-LC-KJ; first compound 0.08 µM) was 0.456. The relative viability (RERF-LC-KJ; first compound 0.253 µM) was 0.487, the relative viability (RERF-LC-KJ; first compound 0.8 µM) was 0.469 and the relative viability (RERF-LC-KJ; first compound 2.53 µM) was 0.46. For the same compound, the relative viability (RERF-LC-KJ; first compound 8 µM) was 0.461, the relative viability (SW 900; first compound 0.08 µM) was 0.446 and the relative viability (SW 900; first compound 0.253 µM) was 0.462. The relative viability (SW 900; first compound 0.8 µM) was 0.479, the relative viability (SW 900; first compound 2.53 µM) was 0.301 and the relative viability (SW 900; first compound 8 µM) was 0.454.
